Values quoted from earlier work as cited in patent US20120283306A1, “MOUSE MODEL FOR AVM” (Georgia Health Sciences University, priority 2011, published 2012).

Conditions: mouse, in vivo

Cc1ccc(-c2cc(C(F)(F)F)nn2-c2ccc(S(N)(=O)=O)cc2)cc1 [celecoxib]
tolerability in mice: well tolerated
